Results reported in patent US10231980B2, “Cortexolone 17alpha-benzoate for use in the treatment of tumours” (COSMO TECHNOLOGIES LTD., priority 2014, dated 2019).
Read-outs that look alike come from different tables or passages of the source.

What was measured:
[1] = system: stimulated PBMC; assay: IC50 on stimulated (actively dividing) PBMC; type: cell-based, human
Experimental: The compound toxicity was determined as follow:
Therapeutic Index=Safety/Potency=IC50 stimulated PBMC/IC50 cancer cell

[2] = system: resting PBMC; assay: IC50 on resting (quiescent) PBMC; type: cell-based, human
Experimental: The IC50 in PBMCs were tested in 2 different activation status: • stimulated—actively dividing cells • resting—quiescent, non-dividing cells
The IC50 in PBMCs were tested in 2 different activation status: • Stimulated—actively dividing cells • Resting—quiescent, non-dividing cells.
IC50 of the compounds was determined on fresh cells isolated from human blood (PBMC).

[3] = system: LNCaP; assay: ATP-dependent cell viability assay (Cell Titer Glo), Example 12; settings: LNCaP; for Therapeutic Index = IC50 stimulated PBMC/IC50 cancer cell: Table VII
Text: (§1) Data shown in Table I were fitted through sigmoidal dose response curves and analyzed using Prizm statistical.

[4] = system: MiaPaca2; assay: as above; settings: for Therapeutic Index = IC50 stimulated PBMC/IC50 cancer cell: Table VII
Text: as §1

[5] = system: PC3; assay: as above; settings: for Therapeutic Index = IC50 stimulated PBMC/IC50 cancer cell: Table VII
Text: as §1

[6] = system: Panc1; assay: as above; settings: for Therapeutic Index = IC50 stimulated PBMC/IC50 cancer cell: Table VII
Text: as §1

[7] = molecular target: T1, wild type AR (AR-LBD) (Rattus norvegicus, UniProt P15207); assay: Polar Screen fluorescence polarization competition assay; type: binding
T1 construct: purchased Life Technologies
Experimental: Briefly, the AR is added to a fluorescent androgen ligand (Fluormone™ AL Green) to form an AR-LBD complex. Competitors displace the fluorescent Fluormone™ AL Green ligand from the AR-LBD causing the fluorescent ligand to tumble rapidly during its fluorescence lifetime, resulting in a low polarization value. Non competitors will not displace the fluorescent ligand from the complex, so the polarization value remains high. The shift in polarization value in the presence of test compounds is used to determine relative affinity of test compounds for AR-LBD.

[8] = In vitro metabolism in plasma; type: in vitro ADME; settings: human plasma, 37 C, through 8 hours
Experimental: (§2) To obtain some insight on the metabolism of CB-03-06 in human and rat plasma, a specific assay was designed. Briefly, the compound was incubated at different time points in human and rat plasma at 37 C. After incubation, the samples were tested for presence of the intact compound by liquid chromatography.

[9] = In vitro metabolism in plasma; type: in vitro ADME, rat; settings: 37 C
Experimental: as §2

[10] = system: MiaPaca-2 pancreatic tumor xenograft; assay: Human pancreatic tumor xenograft in nude mice; type: in vivo; settings: for in vivo antitumor activity compared with Cyproterone Acetate: Examples 5 and 6
Experimental: Cortexolone 17α-benzoate and Cyproterone Acetate were separately diluted in DMSO/2-hydroxypropyl β-cyclodextrin (vehicle).
The test was carried out comparing the anti-tumor activity of cortexolone 17α-benzoate at two different dosages (8.0 mg/kg, corresponding approximately at 230 μM, and 40 mg/kg, corresponding approximately at 1150 μM), versus the vehicle (i.e. 0.4% (v/v) tween 80 and 0.5% (w/v) carboxymethylcellulose in normal saline) and versus the comparator Cyproterone Acetate at two different dosages (7.4 mg/kg and 37 mg/kg).
1×10^6 MiaPaca-2 cells suspended in matrigel were sub-cutaneously injected into 6 week old athymic nude mice.
The treatment with the tested compounds, with the vehicle and with the comparative compound, was initiated after the tumor volume has reached 50 mm^3 after transplantation. All compounds were injected 100 μL/mouse of low dose solution (approximately 230 μM) or 100 μL/mouse of high dose solution (approximately 1150 μM) of cortexolone 17α-benzoate, vehicle and Cyproterone Acetate, respectively. Compounds and controls were administered subcutaneously daily for 28 days.
Tumors were measured every 4 days with a digital caliper.
The results are plotted in FIG. 1 as average change in tumor volume relative to the start of treatment. Tumor volume was calculated according to the formula 0.5236(r1)^2(r2) where r1<r2.
Error bars are the SEM for 7 to 10 mice per treatment group. P values were calculated according to the Student's t test.
Cortexolone 17α-valerate-21-propionate and Cyproterone Acetate were separately diluted in DMSO/2-hydroxypropyl β-cyclodextrin (vehicle).
The test was carried out comparing the anti-tumor activity of cortexolone 17α-valerate-21-propionate at two different dosages (approximately 8.6 mg/kg and 43 mg/kg) versus the vehicle (i.e. 0.4% (v/v) tween 80 and 0.5% (w/v) carboxymethylcellulose in normal saline) and versus the comparator Cyproterone Acetate at two different dosages (7.4 mg/kg and 37 mg/kg).
1×10^6 MiaPaca-2 cells suspended in matrigel were subcutaneously injected into 6 week old athymic nude mice.
The treatment with the tested compound, with the vehicle and with the comparative compound was initiated after the tumor has reached a volume of 50 mm^3 after implantation, injecting subcutaneously 100 μL/mouse of low dose solution (approximately 230 μM) or 100 μL/mouse of high dose solution (approximately 1150 μM) of cortexolone 17α-valerate-21-propionate, vehicle and Cyproterone Acetate, respectively. Compounds and controls were administered subcutaneously daily for 28 days. Tumors were measured every 4 days with a digital caliper.
The results are plotted in FIG. 2 as average change in tumor volume relative to the start of treatment. Tumor volume was calculated according to the formula 0.5236(r1)^2(r2) where r1<r2.
Cyproterone acetate (CPA), a well-known anti-androgen, was used as control. Briefly 1×10^6 MiaPaca2 cells suspended in matrigel were subcutaneously (sc) injected into 6 week old male athymic nude mice. Tumors were measured every 4 days with a digital caliper. Tumor volume was calculated according to the formula: 0.5236(r1)2(r2) where r1<r2. Treatment with CB-03-06 and control compounds were initiated after the tumor had reached 50 mm^3. Compounds diluted in DMSO/2-hydroxypropyl b-cyclodextrin (vehicle) were subcutaneously injected daily (100 microL/mouse) at the concentration of 40 mg/Kg daily for 28 consecutive days.

[11] = system: stimulated PBMC; assay: IC50 on stimulated (actively dividing) PBMC; type: cell-based, human; settings: PBMC Stim; Table IV

T1 sequence (P15207 651-882 limits assumed): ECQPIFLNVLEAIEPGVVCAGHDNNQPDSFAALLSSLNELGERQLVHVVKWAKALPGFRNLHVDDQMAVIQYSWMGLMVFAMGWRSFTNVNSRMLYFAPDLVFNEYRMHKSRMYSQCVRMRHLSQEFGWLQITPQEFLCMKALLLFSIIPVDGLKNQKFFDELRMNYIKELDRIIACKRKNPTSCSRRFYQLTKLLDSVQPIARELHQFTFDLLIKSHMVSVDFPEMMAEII

## C[C@]12CCC(=O)C=C1CC[C@@H]1[C@@H]2CC[C@@]2(C)[C@H]1CC[C@]2(OC(=O)c1ccccc1)C(=O)CO [CB-03-06, cortexolone 17α-benzoate]
[1]; Homo sapiens, PBMC, read-out: IC50 on Stimulated PBMC, Example 7, Experiment 1
  IC50: 113 µM
[1]; Homo sapiens, PBMC, read-out: IC50 on Stimulated PBMC, Example 7, Experiment 2
  IC50: 97 µM
[1]; Homo sapiens, PBMC, read-out: In vitro proliferation IC50, PBMC STIMULATED, Table IV
  IC50: 97 µM
[1]; Homo sapiens, PBMC, read-out: in vitro proliferation IC50, PBMC STIMULATED, Table III
  IC50: 97 µM
[2]; Homo sapiens, PBMC, read-out: IC50 on Resting PBMC, Example 7, Experiment 1
  IC50: 100 µM
[2]; Homo sapiens, PBMC, read-out: IC50 on Resting PBMC, Example 7, Experiment 2
  IC50: 85 µM
[2]; Homo sapiens, PBMC, read-out: in vitro proliferation IC50, PBMC RESTING, Table III
  IC50: 85 µM
[3]; Homo sapiens, 72 h
  IC50: 12 µM
[3]; Homo sapiens, read-out: In vitro proliferation IC50
  IC50: 12 µM
[3]; Homo sapiens, read-out: in vitro proliferation IC50
  IC50: 12 µM
[3]; Table IV
  Therapeutic Index = IC50 resting PBMC/IC50 cancer cell: 8
[3]
  Therapeutic Index = IC50 stimulated PBMC/IC50 cancer cell: 8
[4]; Homo sapiens, MIA PaCa-2, 72 h
  IC50: 20 µM
[4]; Homo sapiens, MIA PaCa-2, read-out: In vitro proliferation IC50
  IC50: 20 µM
[4]; Homo sapiens, MIA PaCa-2, read-out: in vitro proliferation IC50
  IC50: 20 µM
[4]; MiaPaca2, Table IV
  Therapeutic Index = IC50 resting PBMC/IC50 cancer cell: 5
[4]; MiaPaca2
  Therapeutic Index = IC50 stimulated PBMC/IC50 cancer cell: 5
[5]; Homo sapiens, PC-3, 72 h
  IC50: 28 µM
[5]; Homo sapiens, PC-3, read-out: In vitro proliferation IC50
  IC50: 28 µM
[5]; Homo sapiens, PC-3, read-out: in vitro proliferation IC50
  IC50: 28 µM
[5]; PC3, Table IV
  Therapeutic Index = IC50 resting PBMC/IC50 cancer cell: 3
[5]; PC3
  Therapeutic Index = IC50 stimulated PBMC/IC50 cancer cell: 3
[6]; Homo sapiens, PANC-1, 72 h
  IC50: 28 µM
[6]; Homo sapiens, PANC-1, read-out: In vitro proliferation IC50
  IC50: 28 µM
[6]; Homo sapiens, PANC-1, read-out: in vitro proliferation IC50
  IC50: 28 µM
[6]; Panc1, Table IV
  Therapeutic Index = IC50 resting PBMC/IC50 cancer cell: 3
[6]; Panc1
  Therapeutic Index = IC50 stimulated PBMC/IC50 cancer cell: 3
[7]
  IC50: 2.6 µM
[8]
  intact compound, % of initial concentration: over 90%
[9]
  degradation in rat compared to human plasma: degrades faster in rat compared to human plasma
[9]; rat plasma, through 8 hours
  intact compound, % of initial concentration: over 90%
[10]; Example 5, MiaPaca-2 xenograft, nude mice, SC daily 28 days, high dose of cortexolone 17α-benzoate (40 mg/kg)
  pancreatic tumor size relative to the size when treatment was initiated: less than 5 fold
[10]; Example 22, MiaPaca2 xenograft, male nude mice, 40 mg/Kg SC daily 28 days, treatment period
  pancreatic tumor size relative to the initial size: less than 5 fold
[10]; Example 22, MiaPaca2 xenograft, 40 mg/Kg SC daily 28 days
  Median survival: 70 days
[10]; MiaPaca-2 xenograft
  in vivo antitumor activity compared with Cyproterone Acetate: antitumor activity higher than Cyproterone Acetate
[11]
  Therapeutic Index = IC50 resting PBMC/IC50 cancer cell: 1

## CCCCC(=O)O[C@]1(C(=O)COC(=O)CC)CC[C@H]2[C@@H]3CCC4=CC(=O)CC[C@]4(C)[C@H]3CC[C@@]21C [CB-03-10, cortexolone 17α-valerate-21-propionate]
[1]; Example 7, Experiment 1, read-out: IC50 on Stimulated PBMC
  IC50: 106 µM
[1]; Example 7, Experiment 2, read-out: IC50 on Stimulated PBMC
  IC50: 94 µM
[1]; PBMC STIMULATED, Table IV, read-out: In vitro proliferation IC50
  IC50: 94 µM
[2]; Example 7, Experiment 1, read-out: IC50 on Resting PBMC
  IC50: 114 µM
[2]; Example 7, Experiment 2, read-out: IC50 on Resting PBMC
  IC50: 120 µM
[3]; Table IV
  Therapeutic Index = IC50 resting PBMC/IC50 cancer cell: 9
[3]
  Therapeutic Index = IC50 stimulated PBMC/IC50 cancer cell: 9
[3]; Tables I and II, titrated 3 uM to 200 uM, 3 days
  IC50: 10 µM
[3]; read-out: In vitro proliferation IC50, Table IV
  IC50: 10 µM
[4]; MiaPaca2, Table IV
  Therapeutic Index = IC50 resting PBMC/IC50 cancer cell: 3
[4]; MiaPaca2
  Therapeutic Index = IC50 stimulated PBMC/IC50 cancer cell: 3
[4]; MiaPaca2, Tables I and II, titrated 3 uM to 200 uM, 3 days
  IC50: 37 µM
[4]; read-out: In vitro proliferation IC50, MiaPaca2, Table IV
  IC50: 37 µM
[5]; PC3, Table IV
  Therapeutic Index = IC50 resting PBMC/IC50 cancer cell: 2
[5]; PC3
  Therapeutic Index = IC50 stimulated PBMC/IC50 cancer cell: 2
[5]; PC3, Tables I and II, titrated 3 uM to 200 uM, 3 days
  IC50: 53 µM
[5]; read-out: In vitro proliferation IC50, PC3, Table IV
  IC50: 53 µM
[6]; Panc1, Table IV
  Therapeutic Index = IC50 resting PBMC/IC50 cancer cell: 2
[6]; Panc1
  Therapeutic Index = IC50 stimulated PBMC/IC50 cancer cell: 2
[6]; Panc1, Tables I and II, titrated 3 uM to 200 uM, 3 days
  IC50: 60 µM
[6]; read-out: In vitro proliferation IC50, Panc1, Table IV
  IC50: 60 µM
[10]; Example 6, MiaPaca-2 xenograft, nude mice, SC daily 28 days, for the time of treatment
  pancreatic tumor size relative to the initial tumor size: less than 5 fold
[10]; MiaPaca-2 xenograft
  in vivo antitumor activity compared with Cyproterone Acetate: antitumor activity higher than Cyproterone Acetate
[11]
  Therapeutic Index = IC50 resting PBMC/IC50 cancer cell: 1
